Source: patent US20120184016A1, “NOVEL PROTEIN AND GENE THAT CODES THEREFOR” (priority 2009, published 2012)

How the values were obtained:
[1] = test system: recombinant β-galactoside-α2,6-sialyltransferase N1C0; assay: Sugar acceptor substrate specificity (sialic acid transfer to monosaccharides/disaccharides); type: biochemical, Photobacterium leiognathi strain JT-SHIZ-119; set-up: Relative activity: concentration or dose not given beside the values; conditions: for transfer of sialic acid to the sugar acceptor substrate (in words) / Transferred NeuAc: purified enzyme; for transfer of sialic acid to the sugar acceptor substrate (in words): among 11 monosaccharides and disaccharides; for Transferred NeuAc: substance used as sugar acceptor substrate; for Relative activity: sialyltransferase activity represented by 100 for lactose
Description: Sialyltransferase activity was measured by a method described in J. Biochem., 120, 104-110 (1996) (which is hereby incorporated by reference in its entirety). Specifically, the enzyme reaction was performed using a reaction solution (30 μL) containing CMP-NeuAc (70 nmol, containing about 20000 cpm CMP-NeuAc in which NeuAc was labeled with ^14C; NeuAc represents N-acetylneuraminic acid) as a sugar donor substrate, lactose (1.25 μmol) as a sugar acceptor substrate, NaCl added to give a concentration of 0.5 M, and the enzyme prepared as described above. The enzyme reaction was carried out at 25° C. for about 10 to 180 minutes. After completion of the reaction, 1.97 mL of 5 mM phosphate buffer (pH 6.8) was added to the reaction solution, which was then applied to a Dowex 1×8 (PO4^3− form, 0.2×2 cm, manufactured by Bio-Rad Laboratories, Inc.) column. The radioactivity contained in the reaction product contained in the eluate (0 to 2 mL) from this column, that is, sialyllactose, was measured to calculate the enzyme activity. One enzyme unit (1 U) is defined as the amount of enzyme required to transfer one micromole of sialic acid per minute.
Sialic acid transfer reaction was performed using the purified enzyme, JT-SHIZ-119-derived recombinant β-galactoside-α2,6-sialyltransferase SHIZ119-N1C0, prepared in Example 3 and using various monosaccharides/disaccharides as sugar acceptor substrates. The reaction was performed by the method described in J. Biochem., 120, 104-110 (1996).
The monosaccharides used as sugar acceptor substrates were the following eight types: methyl-α-D-galactopyranoside (Gal-α-OMe), methyl-β-D-galactopyranoside (Gal-β-OMe), methyl-α-D-glucopyranoside (Glc-α-OMe), methyl-β-D-glucopyranoside (Glc-β-OMe), methyl-α-D-mannopyranoside (Man-α-OMe), methyl-β-D-mannopyranoside (Man-(3-OMe), N-acetylgalactosamine (GalNAc), and N-acetylglucosamine (GlcNAc). The disaccharides used were the following three types: lactose (Gal-β1,4-Glc), N-acetyllactosamine (Gal-β1,4-GlcNAc), and Gal-β1,3-GalNAc.
Note that the relative activity for each acceptor substrate is based on the sialyltransferase activity represented by 100 for lactose.

[2] = test system: JT-SHIZ-119-derived recombinant β-galactoside-α2,6-sialyltransferase N1C0 (neuraminidase activity); assay: Substrate specificity of neuraminidase activity with PA-sugar chains, HPLC; type: biochemical, Photobacterium leiognathi strain JT-SHIZ-119; conditions: 30° C. for 18 hours; FIGS. 3-5, 3-7, 3-8
Description: The substrate specificity of neuraminidase, that is, the linkage mode of sialic acid to a sugar chain that is cleaved by the neuraminidase can be determined by, but not limited to, a method using a pyridylaminated sugar chain. More specifically, the enzyme reaction by neuraminidase is performed using PA sugar chains in which sialic acid is linked by α2,3-linkage, α2,6-linkage, or α2,8-linkage (for example, pyridylaminated sugar chains such as PA-Sugar Chain 029, PA-Sugar Chain 023, and PA-Sugar Chain 034 available from Takara Bio Inc.). The reaction product is analyzed by high performance liquid chromatography, and the amount of sialic acid that was cleaved is calculated from the retention time and peak area of the reaction product.
To reveal the specificity of the neuraminidase activity of the JT-SHIZ-119-derived recombinant β-galactoside-α2,6-sialyltransferase N1C0, reactions using a PA-sugar chain shown in Table 4, to which sialic acid is linked via α2,3-, α2,6-, or α2,8-linkage (PA-Sugar Chain 029, PA-Sugar Chain 023, or PA-Sugar Chain 034, manufactured by Takara Bio Inc.) as a substrate were performed.
To a purified enzyme solution of the JT-SHIZ-119-derived recombinant β-galactoside-α2,6-sialyltransferase N1C0 (equivalent to 0.6 U as sialyltransferase activity), 1.5 μL of a 10 pmol/μL PA-sugar chain was added, followed by reaction at 30° C. for 18 hours. After completion of the reaction, the reaction solution was treated at 100° C. for 2 minutes to inactivate the enzyme, followed by HPLC to analyze the reaction product. In the case of using PA-Sugar Chain 023 as the substrate, the pyridylaminated sugar chain was eluted and analyzed under the same conditions as those in Example 1. In the case of using PA-Sugar Chain 029 or PA-Sugar Chain 034 as the substrate, the elution was performed using eluent A (100 mM acetate-triethylamine, pH 5.0) and eluent B (100 mM acetate-triethylamine containing 0.5% n-butanol, pH 5.0) with a linear gradient of 0 to 100% eluent B (0 to 35 min), 100% eluent B (35 to 50 min), and then a linear gradient of 100% to 30% eluent B (51 to 75 min). The analysis was performed under the conditions of Example 1. FIGS. 3-2 to 3-8 show the results.

| Compound | transfer of sialic acid to the sugar acceptor substrate (in words) [1] | Transferred NeuAc [1] | Relative activity [1] | HPLC peak after reaction of the PA-sugar chain with the purified enzyme solution [2] |
| --- | --- | --- | --- | --- |
| CC(=O)N[C@H]1C(O)O[C@H](CO)[C@H](O)[C@@H]1O (some centres unmarked) [N-Acetylgalactosamine, N-acetylgalactosamine] | efficiently transferred | 0.29 nmol/min | 10% | – |
| N-Acetyllactosamine type, disialylated biantennary [PA-Sugar Chain 023] | – | – | – | corresponds to PA-Sugar Chain 001 |
| GD1b-hexasaccharide [PA-Sugar Chain 034] | – | – | – | corresponds to PA-Sugar Chain 034 |
| CC(=O)NC1C(O)CC(OC2C(O)C(CO)OC(OC(C(O)CO)C(O)C(O)CNc3ccccn3)C2O)(C(=O)O)OC1C(O)C(O)CO (centres unmarked) [PA-Sugar Chain 029, Neu5Acα2-3Galβ1-4Glc-PA] | – | – | – | corresponds to PA-Sugar Chain 029 |
| CO[C@@H]1O[C@H](CO)[C@@H](O)[C@H](O)[C@@H]1O [Methyl-β-D-mannopyranoside, methyl-β-D-mannopyranoside] | – | 0.04 nmol/min | 1% | – |
| CO[C@H]1O[C@H](CO)[C@H](O)[C@H](O)[C@H]1O [Methyl-α-D-galactopyranoside, methyl-α-D-galactopyranoside] | – | 0.04 nmol/min | 1% | – |
| CO[C@H]1O[C@H](CO)[C@@H](O)[C@H](O)[C@@H]1O [Methyl-α-D-mannopyranoside, methyl-α-D-mannopyranoside] | – | <0.01 nmol/min | – | – |
| CO[C@@H]1O[C@H](CO)[C@@H](O)[C@H](O)[C@H]1O [Methyl-β-D-glucopyranoside, methyl-β-D-glucopyranoside] | – | <0.01 nmol/min | – | – |
| CO[C@H]1O[C@H](CO)[C@@H](O)[C@H](O)[C@H]1O [Methyl-α-D-glucopyranoside, methyl-α-D-glucopyranoside] | – | <0.01 nmol/min | – | – |
| CC(=O)N[C@H]1C(O)O[C@H](CO)[C@@H](O[C@@H]2O[C@H](CO)[C@H](O)[C@H](O)[C@H]2O)[C@@H]1O (some centres unmarked) [N-Acetyllactosamine, N-acetyllactosamine] | efficiently transferred | 2.96 nmol/min | 103% | – |
| CC(=O)N[C@H]1C(O)O[C@H](CO)[C@@H](O)[C@@H]1O (some centres unmarked) [N-Acetylglucosamine, N-acetylglucosamine] | – | <0.01 nmol/min | – | – |
| CO[C@@H]1O[C@H](CO)[C@H](O)[C@H](O)[C@H]1O [Methyl-β-D-galactopyranoside, methyl-β-D-galactopyranoside] | efficiently transferred | 1.1 nmol/min | 38% | – |
| OC[C@H]1O[C@@H](O[C@H]2[C@H](O)[C@@H](O)C(O)O[C@@H]2CO)[C@H](O)[C@@H](O)[C@H]1O (some centres unmarked) [Lactose, lactose] | efficiently transferred | 2.88 nmol/min | 100% | – |
| CC(=O)N[C@H]1C(O)O[C@H](CO)[C@H](O)[C@@H]1O[C@@H]1O[C@H](CO)[C@H](O)[C@H](O)[C@H]1O (stereo partly drawn) [Gal-β1,3-GalNAc] | efficiently transferred | 1.68 nmol/min | 58% | – |
